Structures can show the parent of a compound that is named as a salt. Values belong to the compound of their own block, whether it stands above or below them. Calls of active or inactive are those of the source.
How the values were obtained:
[1] = biological target: Eukaryotic translation initiation factor 4E (Mus musculus, UniProt P63073); assay: blockers of eIF4G binding by eIF4E – biochemical, TR-FRET, dose response (AID 855); assay type: functional;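 note: potency for disrupting eIF4E binding to eIF4GI seen as loss of FRET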
Sequence of Eukaryotic translation initiation factor 4E (P63073 whole entry): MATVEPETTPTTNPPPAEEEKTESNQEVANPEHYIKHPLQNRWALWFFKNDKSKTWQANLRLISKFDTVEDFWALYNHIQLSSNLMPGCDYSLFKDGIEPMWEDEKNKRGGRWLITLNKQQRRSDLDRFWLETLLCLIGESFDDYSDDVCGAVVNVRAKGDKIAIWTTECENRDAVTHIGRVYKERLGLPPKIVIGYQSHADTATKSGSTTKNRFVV

[2] = biological target: 72 kDa type IV collagenase (Homo sapiens, UniProt P08253); assay: Dose Response validation of uHTS RPN11 inhibitor hits using a MMP-2 Fluorescence assay.; assay type: functional
Sequence of 72 kDa type IV collagenase (P08253 whole entry): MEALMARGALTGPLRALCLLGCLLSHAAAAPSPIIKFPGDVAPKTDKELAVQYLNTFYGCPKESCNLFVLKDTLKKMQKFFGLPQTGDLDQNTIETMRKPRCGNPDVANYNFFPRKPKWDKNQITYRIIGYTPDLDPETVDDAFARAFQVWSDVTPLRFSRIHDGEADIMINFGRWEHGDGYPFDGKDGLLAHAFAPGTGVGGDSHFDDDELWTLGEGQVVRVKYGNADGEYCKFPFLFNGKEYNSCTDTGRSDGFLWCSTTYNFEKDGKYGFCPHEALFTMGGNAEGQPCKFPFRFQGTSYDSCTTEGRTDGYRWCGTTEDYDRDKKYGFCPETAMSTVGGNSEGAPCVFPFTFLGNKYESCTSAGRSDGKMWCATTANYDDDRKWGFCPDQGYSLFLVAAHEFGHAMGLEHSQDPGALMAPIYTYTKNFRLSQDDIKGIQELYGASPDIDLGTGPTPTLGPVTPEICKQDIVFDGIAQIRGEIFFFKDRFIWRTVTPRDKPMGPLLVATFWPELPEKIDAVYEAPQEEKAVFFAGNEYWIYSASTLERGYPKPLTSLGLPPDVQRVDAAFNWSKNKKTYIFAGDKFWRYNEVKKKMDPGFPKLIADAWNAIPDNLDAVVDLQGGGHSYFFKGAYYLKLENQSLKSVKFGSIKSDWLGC

Prothrombin = Prothrombin (Bos taurus, UniProt P00735); assay: thrombin protease inhibitors – biochemical, fluorescence polarization, uHTS hits, dose response (AID 602369); assay type: functional
[3] = biological target: Peroxisome proliferator-activated receptor gamma/Nuclear receptor corepressor 2 (Homo sapiens, UniProt P37231+Q9Y618); assay: Counterscreen for NR2E3 inverse agonists: TR-FRET-based biochemical high throughput dose response assay to identify inverse agonists of the interaction between peroxisome proliferator-activated receptor gamma (PPARg) and nuclear receptor co-repressor 2 (NCOR2).; assay type: functional
[4] = biological target: 26S proteasome non-ATPase regulatory subunit 14 (Homo sapiens, UniProt O00487); assay: inhibition of proteasome subunit RPN11 – biochemical, fluorescence polarization, uHTS hits, confirmation (AID 602368); assay type: functional
Sequence of 26S proteasome non-ATPase regulatory subunit 14 (O00487 whole entry): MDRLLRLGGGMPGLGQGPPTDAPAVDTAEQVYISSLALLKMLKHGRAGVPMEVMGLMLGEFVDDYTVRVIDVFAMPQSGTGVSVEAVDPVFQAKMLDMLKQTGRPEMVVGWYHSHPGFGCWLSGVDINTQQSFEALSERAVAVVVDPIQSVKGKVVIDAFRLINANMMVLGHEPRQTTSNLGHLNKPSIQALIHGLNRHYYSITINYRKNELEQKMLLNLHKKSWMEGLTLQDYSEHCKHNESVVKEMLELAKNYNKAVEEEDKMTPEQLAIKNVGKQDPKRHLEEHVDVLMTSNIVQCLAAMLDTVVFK

[5] = biological target: Photoreceptor-specific nuclear receptor (Homo sapiens, UniProt Q9Y5X4); assay: ligands suppressing NR2E3 nuclear receptor activity – biochemical, TR-FRET, dose response (AID 463256); assay type: functional
Sequence of Photoreceptor-specific nuclear receptor (Q9Y5X4 whole entry): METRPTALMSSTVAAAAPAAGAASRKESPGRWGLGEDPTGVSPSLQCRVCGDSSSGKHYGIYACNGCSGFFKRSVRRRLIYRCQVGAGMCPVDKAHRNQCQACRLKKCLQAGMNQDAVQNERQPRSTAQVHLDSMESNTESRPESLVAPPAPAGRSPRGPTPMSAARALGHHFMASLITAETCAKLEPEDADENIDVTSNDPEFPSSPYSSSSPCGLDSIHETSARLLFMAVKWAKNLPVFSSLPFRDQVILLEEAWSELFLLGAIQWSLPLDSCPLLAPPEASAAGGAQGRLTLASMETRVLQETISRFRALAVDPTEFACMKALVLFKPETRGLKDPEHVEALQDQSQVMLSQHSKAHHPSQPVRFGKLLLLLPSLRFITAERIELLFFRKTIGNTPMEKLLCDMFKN

[6] = potency of ADAM10 substrate cleavage blockers – biochemical, QFRET, dose response (AID 743254);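 note: ADAM10 enzyme with the DM2 quenched FRET peptide as substrate; EDANS fluorescence gain as the protease cuts the substrate; inhibitor potency against ADAM10 proteolytic activity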
[7] = biological target: Disintegrin and metalloproteinase domain-containing protein 17 (Homo sapiens, UniProt P78536); assay: inhibition of ADAM17 substrate cleavage – biochemical, quenched FRET substrate, counter-screen for ADAM10 exosite inhibitor project, dose response (AID 743253)
Sequence of Disintegrin and metalloproteinase domain-containing protein 17 (P78536 whole entry, the tested form may be a part): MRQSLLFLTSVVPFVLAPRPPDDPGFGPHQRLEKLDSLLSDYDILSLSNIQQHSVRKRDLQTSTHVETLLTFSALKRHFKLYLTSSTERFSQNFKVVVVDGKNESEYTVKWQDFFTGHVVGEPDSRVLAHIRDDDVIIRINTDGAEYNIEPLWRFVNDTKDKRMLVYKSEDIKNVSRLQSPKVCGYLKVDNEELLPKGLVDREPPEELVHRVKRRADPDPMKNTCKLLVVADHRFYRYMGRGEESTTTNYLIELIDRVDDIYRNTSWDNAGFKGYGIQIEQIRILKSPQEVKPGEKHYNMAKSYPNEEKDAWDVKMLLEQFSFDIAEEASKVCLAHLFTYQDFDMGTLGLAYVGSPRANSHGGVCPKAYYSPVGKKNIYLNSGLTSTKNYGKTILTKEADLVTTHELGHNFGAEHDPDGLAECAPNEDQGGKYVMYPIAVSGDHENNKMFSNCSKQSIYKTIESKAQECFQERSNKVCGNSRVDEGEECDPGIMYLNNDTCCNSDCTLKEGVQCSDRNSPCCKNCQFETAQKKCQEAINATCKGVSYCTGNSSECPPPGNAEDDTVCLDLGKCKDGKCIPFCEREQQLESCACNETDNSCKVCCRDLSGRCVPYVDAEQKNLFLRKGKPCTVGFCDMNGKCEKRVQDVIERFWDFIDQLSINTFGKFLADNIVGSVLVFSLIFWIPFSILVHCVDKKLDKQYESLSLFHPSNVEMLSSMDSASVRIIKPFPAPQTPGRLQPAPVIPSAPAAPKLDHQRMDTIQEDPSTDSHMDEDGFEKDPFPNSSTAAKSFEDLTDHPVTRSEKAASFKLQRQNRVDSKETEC

[8] = fluconazole-exposed Candida albicans growth modulators – fluorescence, retest, confirmation (AID 2467); assay type: functional, cell-based
[9] = NIH-3T3 fibroblast cytotoxicity, dose response, cytotoxicity control, cell-based, fluorescence, Alamar Blue, secondary assay (AID 2327); assay type: functional;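 note: NIH-3T3 mouse fibroblasts cultured with fluconazole at 8 µg/mL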
Protein Tat = biological target: T1, Protein Tat (Human immunodeficiency virus type 1 group M subtype B (isolate HXB2)(HIV-1), UniProt P04608); assay type: functional;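 note: tat binding to TAR RNA read out by fluorescence polarization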
T1 sequence (P04608 whole entry): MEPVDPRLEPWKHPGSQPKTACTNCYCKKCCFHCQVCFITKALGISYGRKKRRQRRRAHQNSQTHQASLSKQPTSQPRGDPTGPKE

Albumin = Albumin (Bos taurus, UniProt P02769); assay: Counterscreen for inhibitors of T-cell receptor (TCR)-CD3 interaction: Fluorescence-based biochemical high throughput dose response assay to identify inhibitors of T-cell receptor (TCR)-CD3 interaction using a TAMRA-labeled BSA probe.; assay type: functional
Sequence of Albumin (P02769 whole entry): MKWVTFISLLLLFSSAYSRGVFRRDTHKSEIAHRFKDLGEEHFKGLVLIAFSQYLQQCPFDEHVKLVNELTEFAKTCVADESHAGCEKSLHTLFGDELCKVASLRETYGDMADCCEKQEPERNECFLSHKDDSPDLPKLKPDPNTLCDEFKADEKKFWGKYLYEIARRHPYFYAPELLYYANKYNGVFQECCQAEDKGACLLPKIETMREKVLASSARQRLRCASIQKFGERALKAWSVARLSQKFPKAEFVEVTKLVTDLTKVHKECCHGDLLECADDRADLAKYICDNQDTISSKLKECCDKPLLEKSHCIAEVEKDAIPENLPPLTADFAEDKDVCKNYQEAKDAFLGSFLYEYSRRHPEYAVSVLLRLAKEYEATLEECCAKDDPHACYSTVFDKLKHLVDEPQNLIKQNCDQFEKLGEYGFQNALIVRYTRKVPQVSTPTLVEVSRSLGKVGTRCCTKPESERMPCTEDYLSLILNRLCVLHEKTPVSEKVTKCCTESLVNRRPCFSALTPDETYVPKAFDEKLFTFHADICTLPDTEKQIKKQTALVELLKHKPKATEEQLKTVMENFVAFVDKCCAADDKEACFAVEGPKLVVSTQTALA

[10] = test system: Streptococcus sp. 'group A'; assay: Streptococcus pyogenes SK(-)GAS viability under kanamycin – luminescence, BacTiterGlo, confirmation, counter-screen for streptokinase expression inhibitor project, dose response (AID 1900); assay type: functional, organism-based
Streptococcus = assay: GAS UMAA2166 growth inhibition – luminescence, BacTiterGlo, counter-screen for streptokinase expression inhibitor project, dose response (AID 1915); assay type: functional, organism-based;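 note: potency for reduction of bacterial viability or growth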
[11] = biological target: G-protein coupled receptor 183 (Homo sapiens, UniProt P32249); assay: SAR confirmation of small molecule antagonists of the EBI2 receptor via a luminescent beta-arrestin assa.; assay type: functional
Sequence of G-protein coupled receptor 183 (P32249 whole entry): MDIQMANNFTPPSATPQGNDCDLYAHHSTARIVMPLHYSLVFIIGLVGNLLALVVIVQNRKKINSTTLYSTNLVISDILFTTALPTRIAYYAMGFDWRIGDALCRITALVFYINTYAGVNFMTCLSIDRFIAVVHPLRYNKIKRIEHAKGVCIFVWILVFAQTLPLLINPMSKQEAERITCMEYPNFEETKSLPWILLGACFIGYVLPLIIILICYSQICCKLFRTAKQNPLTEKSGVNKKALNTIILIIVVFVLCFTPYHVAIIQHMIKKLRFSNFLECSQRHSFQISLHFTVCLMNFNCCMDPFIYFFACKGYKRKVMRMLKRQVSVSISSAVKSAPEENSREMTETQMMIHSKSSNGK

[12] = IC50 of Artemis nuclease activity blockers – biochemical, fluorescence intensity, dose response (AID 720701); assay type: functional;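 note: Artemis endonuclease enzyme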
[13] = biological target: T2, Glutathione-S-transferase (Schistosoma japonicum, UniProt Q26513); assay: GST-antibody interaction or FRET quenching – biochemical, TR-FRET, artefact control for Vif-APOBEC3G degradation inhibitor project, dose response (AID 1117362); assay type: functional
T2 sequence (Q26513 whole entry): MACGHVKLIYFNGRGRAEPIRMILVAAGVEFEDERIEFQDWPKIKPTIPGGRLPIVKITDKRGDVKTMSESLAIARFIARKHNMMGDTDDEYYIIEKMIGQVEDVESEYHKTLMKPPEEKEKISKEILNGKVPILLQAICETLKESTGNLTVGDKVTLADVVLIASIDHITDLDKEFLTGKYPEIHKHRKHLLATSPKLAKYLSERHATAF

[14] = biological target: Mitogen-activated protein kinase 10 (Homo sapiens, UniProt P53779); assay: Dose response biochemical screening assay for inhibitors of c-Jun N-Terminal Kinase 3 (JNK3). [Related pubchem assays: 746 ]
Sequence of Mitogen-activated protein kinase 10 (P53779 whole entry): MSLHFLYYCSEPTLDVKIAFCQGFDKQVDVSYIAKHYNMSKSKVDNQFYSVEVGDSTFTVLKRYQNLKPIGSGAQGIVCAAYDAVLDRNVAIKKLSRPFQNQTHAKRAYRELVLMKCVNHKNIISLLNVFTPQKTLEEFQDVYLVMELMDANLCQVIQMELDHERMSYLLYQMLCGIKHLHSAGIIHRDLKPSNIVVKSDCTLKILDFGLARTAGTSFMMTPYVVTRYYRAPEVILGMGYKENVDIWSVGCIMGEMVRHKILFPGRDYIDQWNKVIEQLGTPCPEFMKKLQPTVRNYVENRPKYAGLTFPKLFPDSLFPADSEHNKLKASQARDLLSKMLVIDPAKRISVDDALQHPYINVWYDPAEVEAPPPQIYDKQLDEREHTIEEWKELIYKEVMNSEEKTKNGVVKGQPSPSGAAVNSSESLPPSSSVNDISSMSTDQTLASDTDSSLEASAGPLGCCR

[15] = Trypanosoma cruzi growth suppression in host cells – NIH3T3 host cells, beta-gal luminescence, confirmation (AID 2044); assay type: functional, cell-based;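 note: intracellular parasites grown in NIH/3T3 mouse fibroblasts as host cells; luminescent beta-galactosidase reporter signal from transgenic T. cruzi replicating inside host cells; inhibitors lower the luminescence signal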
cells [16] = assay: cells
[17] = NIH3T3 cell viability loss – ATP luminescence, mouse fibroblasts, counter-screen, dose response (AID 2010); assay type: functional, cell-based;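 note: cells exposed to compound for about 90 hours before reading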
[18] = rise of 2N DNA cells, HeLa – IC50, dose response (AID 1117349); assay type: functional, cell-based
[19] = rise of 4N DNA cells, HeLa – IC50, dose response (AID 1117351); assay type: functional, cell-based
cells [20] = assay type: functional, cell-based
Paired box protein Pax-8 = Paired box protein Pax-8 (Homo sapiens, UniProt Q06710); assay: PAX8 transcriptional activity inhibition in RMG-I – RMG-I cells, luciferase, cherry-pick, dose response (AID 687027); assay type: functional, cell-based;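 note: luciferase reporter driven by Pax8 target thyroperoxidase promoter measured by SteadyGlo luminescence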
Sequence of Paired box protein Pax-8 (Q06710 whole entry): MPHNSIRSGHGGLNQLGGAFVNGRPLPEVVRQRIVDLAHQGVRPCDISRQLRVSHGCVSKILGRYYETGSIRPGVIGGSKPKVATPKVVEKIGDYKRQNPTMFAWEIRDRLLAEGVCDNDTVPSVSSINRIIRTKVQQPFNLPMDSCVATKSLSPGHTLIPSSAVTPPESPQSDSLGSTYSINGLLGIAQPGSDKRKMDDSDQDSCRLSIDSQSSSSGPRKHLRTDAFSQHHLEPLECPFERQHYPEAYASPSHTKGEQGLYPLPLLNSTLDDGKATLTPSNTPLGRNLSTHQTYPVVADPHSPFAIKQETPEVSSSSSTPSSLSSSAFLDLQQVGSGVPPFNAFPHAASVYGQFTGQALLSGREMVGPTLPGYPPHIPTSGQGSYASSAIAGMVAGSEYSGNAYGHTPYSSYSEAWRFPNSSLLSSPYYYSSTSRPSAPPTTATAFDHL

[21] = cytotoxicity toward HCT116 cells – cell-based, CellTiter-Glo luminescence, IC50, dose response (AID 1117332); assay type: functional; settings: HCT-116
[22] = cytotoxicity toward HT-29 cells – cell-based, CellTiter-Glo luminescence, IC50, dose response (AID 1117330); assay type: functional
[23] = cytotoxicity toward Colo320 cells – cell-based, CellTiter-Glo luminescence, IC50, dose response (AID 1117334); assay type: functional; settings: COLO 320
[24] = RKO cell viability reduction, dose response, CellTiter-Glo luminescence (AID 1117322); assay type: functional
[25] = HCT116 cell viability decrease, GSK3B pretreatment – CellTiter-Glo, IC50, dose response (AID 1117339); assay type: functional; settings: HCT-116
[26] = biological target: T3, Nuclear receptor subfamily 0 group B member 1 (Homo sapiens, UniProt P51843); assay type: functional, cell-based;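 note: HEK293T cells transfected with SF-1 and DAX-1 plus StAR promoter luciferase reporter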
T3 sequence (P51843 whole entry): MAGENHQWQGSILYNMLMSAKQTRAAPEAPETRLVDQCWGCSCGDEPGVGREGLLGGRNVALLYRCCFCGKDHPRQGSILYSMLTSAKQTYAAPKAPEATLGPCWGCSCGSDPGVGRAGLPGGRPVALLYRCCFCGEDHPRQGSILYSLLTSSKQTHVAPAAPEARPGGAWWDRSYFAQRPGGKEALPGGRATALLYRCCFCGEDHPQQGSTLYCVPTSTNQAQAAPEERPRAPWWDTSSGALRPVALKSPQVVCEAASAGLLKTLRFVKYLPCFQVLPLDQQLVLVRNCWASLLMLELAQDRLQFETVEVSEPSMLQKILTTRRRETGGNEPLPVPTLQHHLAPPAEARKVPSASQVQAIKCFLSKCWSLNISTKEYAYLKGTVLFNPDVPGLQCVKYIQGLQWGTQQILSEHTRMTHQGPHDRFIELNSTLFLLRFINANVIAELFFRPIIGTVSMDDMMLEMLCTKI

IC50 [1]: > 64 µM (inactive)
IC50 [2]: > 100 µM (inactive)
IC50 (Prothrombin): 51.4 µM (active)
IC50 [3]: 0.737 µM (active)
IC50 [4]: 23.7 µM (active)
IC50 [5]: 0.774 µM (active)
SMILES: C=CCn1c(SCC(=O)Nc2ccc(-c3nc4ccc(C)cc4s3)cc2)nnc1-c1ccccc1

IC50 [6]: > 69.5 µM (inactive)
IC50 [7]: > 69.5 µM (inactive)
SMILES: CSc1cccc(NC(=O)/C=C/c2ccc(Cl)cc2)c1

SMILES: COc1ccc(/C=N\NC(=O)c2cc(O)c(O)c(O)c2)cc1CN1CCN(c2ccc(F)cc2)CC1
EC50 [8]: 1.46 µM (active)
EC50 [9]: > 150 µM (inactive)
IC50 (Protein Tat): > 100 µM (inconclusive)
IC50 (Albumin): > 94.2 µM (inactive)

SMILES: O=C(CNC(=O)c1ccccc1Br)N/N=C\c1cc([N+](=O)[O-])cc(Br)c1O
EC50 [10]: 8.28 µM (active)
EC50 (Streptococcus): 8.46 µM (active)
IC50 (Albumin): > 94.1 µM (inactive)

IC50 [11]: 0.00562 µM (active)
SMILES: CCCCC(=O)N1CCN(C(=O)/C=C/c2ccc(Br)cc2)CC1

SMILES: CCCOc1ccc(N)cc1N
IC50 [12]: > 20 µM (inactive)
IC50 [13]: 15.8 µM (active)

IC50 [14]: > 93.1 µM (not active)
SMILES: COCc1cc(C)nc(SCC(=O)Nc2cc3c(cc2C#N)OCO3)c1C#N

SMILES: COc1ccc(CC(=O)NCC2CCCN(Cc3ccc(SC)cc3)C2)cc1 (configuration not stated)
EC50 [15]: < 0.1 µM (active)
EC50 (cells [16]): 0.034 µM (active)
EC50 [17]: > 60 µM (not active)

IC50 [11]: > 1 µM (inactive)
SMILES: O=C(CCCc1ccc(Br)cc1)N1CCN(Cc2ccc(Cl)cc2)CC1

SMILES: CC(C)=CCCC(C)CN1CCC(n2nccc2NC(=O)c2ccc3c(c2)OCO3)CC1 (configuration not stated)
EC50 [15]: < 0.1 µM (active)
EC50 (cells [16]): > 10 µM (not active)
EC50 [17]: 9.11 µM (active)

SMILES: CC[C@]1(O)C[C@@H]2CN(CCc3c([nH]c4ccccc34)[C@@](C(=O)OC)(c3cc4c(cc3OC)N(C)[C@H]3[C@@](O)(C(=O)OC)[C@H](OC(C)=O)[C@]5(CC)C=CCN6CC[C@]43[C@@H]65)C2)C1 [VINBLASTINE SULFATE]
IC50 [18]: 0.0048 µM (active)
IC50 [19]: 0.0032 µM (active)
IC50 (cells [20]): > 67.5 µM (inactive)
AC50 (Paired box protein Pax-8): < 0.26 µM (active)
IC50 [21]: 0.001 µM (active)
IC50 [22]: 0.001 µM (active)
IC50 [23]: 0.001 µM (active)
IC50 [24]: 0.001 µM (active)
IC50 [25]: 0.001 µM (active)
IC50 [26]: > 67.5 µM (inactive)

IC50 [14]: 22.2 µM (not active)
SMILES: CCOC(=O)c1c(-c2ccccc2)[nH]c2ccc(O)cc12
